The values that follow come from patent publication US9957253B2, “Triaminopyrimidine compounds useful for preventing or treating malaria” (MMV MEDICINES FOR MALARIA VENTURE, priority 2014, dated 2018).

The structures appear in SMILES notation. Counter-ions that a name gives are not always drawn. Like-named read-outs stand apart in the source and are kept apart here.

For one data set, the system named is Plasmodium berghei. The data set can be described thus: In vivo efficacy in the mouse malaria model (four day suppressive test). The following applies: P. berghei infected mice, growth of parasites in blood. The procedure:
In Vivo Efficacy in the Mouse Malaria Model In vivo efficacy against blood stages was measured in mice infected with Plasmodium berghei after four (once daily) days of dosing by oral route. Detailed protocol for this four day suppressive test is described in Fidock et al 2004, Nature Reviews Drug Discovery (3), p 509.

The next data set deals with hepatocytes. Kind of data set: Metabolic stability assay (hepatocyte Clint), human. Type of data set: in vitro ADME. To be noted: 1 μM compound. As to the method:
Metabolic Stability Assay (Rat/Human Hepatocyte Clint)
Viability of cryopreserved hepatocytes was determined using trypan blue and the cell concentration was adjusted to 10^6 cells per mL with Leibovitz L-15 Buffer. 1 μM compound (in Acetonitrile; 0.01% DMSO) was incubated with 500 μL of hepatocytes (1 million cells per mL) in a NUNC plate. Reaction was stopped at different time points (0, 5, 15, 30, 60, 90 and 120 min) by addition of 3 volumes of chilled acetonitrile to 100 μL of reaction mixture and centrifuged at 4° C. for 15 min. Supernatants were analyzed using LC-MS/MS for substrate depletion.

A short description of data set [1]: Blood:Plasma (BP) ratio, rat. The data set is classed as in vitro ADME.
Data set [2] is described as follows: Blood:Plasma (BP) ratio, human. The data set is classed as in vitro ADME.
A short description of data set [3]: Plasma protein binding assay (equilibrium dialysis), human. Type of data set: in vitro ADME. The procedure: Plasma Protein Binding Assay
Protein binding is measured using the equilibrium dialysis technique. Compound is added to 10% plasma giving a concentration of 20 μM and dialysed with isotonic buffer for 18 hours at 37° C. The plasma and buffer solutions are analysed using generic LCUVMS and the first apparent binding constant for the compound derived. The binding constant is then used to determine the % free in 100% plasma.

A short description of data set [4]: Pharmacokinetic studies (IVPK/POPK) in male Wistar rats. The data set is classed as in vivo. To be noted: Rat; for Oral ‘F’ / ½ life (PO PK): 5 mg/kg Examples 7 and 10, 10 mg/kg Example 13; for clearance / Vd: male, Wistar, IV bolus, 0.5 mg/kg Examples 7 and 10, 2 mg/kg Example 13; for clearance: read-out: CL blood; for Vd: read-out: Vss blood. The procedure:
All in vivo studies were approved by the institutional animal ethics committee. Pharmacokinetics following IV bolus (IVPK) or oral administration (POPK) of compounds was determined in male Wistar rats or male Beagle dogs. For IVPK in rats, Example 7 and Example 10 were administered as solutions in 20% DMA, 80% phosphate-buffered saline and Example 13 was administered as a solution in 10% v/v NMP, 20% v/v DMA in saline. For POPK, Example 7 and Example 10 were administered as suspensions in 20% DMA, 80% phosphate buffered saline and Example 13 was administered as a suspension in 0.5% HPMC and 0.1% Tween 80 through an oral gavage. Example 13 was administered to dogs as a solution in 10% Ethanol, 30% PEG 400, 60% saline for IVPK and as a suspension in 0.5% HPMC, and 0.1% Tween 80 for POPK. Doses used for rat and dog PK were 0.5 mg/kg for Examples 7 and 10 or 2 mg/kg for Example 13 (IVPK). Doses of 5 mg/kg for Examples 7 and 10 were used during POPK. Doses of 10 mg/kg were used for Example 13 during POPK studies. Blood samples were collected at 8 to 13 time points (0, 0.0833, 0.25, 0.283, 0.333, 0.417, 0.75, 1.25, 3.25, 6.25, 12.25, 24.25 h for dog IVPK; 0, 0.25, 0.5, 1, 1.5, 2, 3, 4, 8, 12, 24, 32, 48 h for dog POPK; 0.083, 0.25, 0.5, 1, 2, 4, 7, 24 h for rat IVPK; 0.25, 1, 3, 6, 12, 24, 36, 48 h for rat POPK) after dosing. Blood (rat) or plasma (dog) samples were analysed by LC-MS/MS. PK parameters were estimated by non-compartmental analysis in Phoenix®.

For a further data set, the target named is CYP3A4 (Homo sapiens, UniProt P08684). Kind of data set: CYP inhibition assay, CYP 3A4. The following applies: probe midazolam; human liver microsomes, substrate cocktail. Type of data set: in vitro ADME. As to the method:
(§1) This study was conducted using specific substrates for 5 major human CYP isozymes. These substrates were used as a cocktail (phenacetin, diclofenac, S-mephenytoin, bufuralol and midazolam which are predominantly metabolised by CYP 1A2, 2C9, 2C19, 2D6 and 3A4/5, respectively) at concentrations equivalent to their respective Km values. LC-MS-MS (MRM mode) was used to follow the formation of the CYP specific metabolites. A decrease in the formation of the metabolites in peak area to vehicle control was used to calculate the IC50 value. […] Test compound was used at 6 different concentrations ([…]) to estimate IC50.
(§2) The incubation was carried out in 96 deep well plates. Mixture of 180 μL of 20 mg/mL HLM and 90 μL of substrate cocktail solution was added to 15840 μL of phosphate buffer and 179 μL of this mixture was mixed with 1 μL of the test compound, inhibitor cocktail solution or vehicle in each well. The final concentration of DMSO:ACN in the assay mix was 0.3:0.7% v/v. The incubation plate was placed into the water bath and pre-warmed at 37° C. for 5 min before the reactions were started by the addition of 20 μL of 10 mmol/L NADPH solution in phosphate buffer. After the addition of NADPH, the incubation plate was incubated at 37° C. for a further 5 min. The reaction was quenched by the addition of 1 volume (200 μL) of cold ACN containing 3% formic acid and 40 nmol/L verapamil. The plates were kept on ice for 20 min and then centrifuged at 4000 rpm for 30 min to precipitate protein. The supernatant 180 μL was transferred to the analysis plate for LC/MS/MS analysis.

For another data set, the target named is T1, human CYP 2D6 (Homo sapiens, UniProt P10635).
T1 construct: Mixture of 180 μL of 20 mg/mL HLM and 90 μL of substrate cocktail solution; from tissue; host or cells: human liver microsomes (HLM)
Kind of data set: CYP inhibition assay, CYP 2D6. The data set is classed as in vitro ADME. The procedure:
as §1, §2

For data set [5], the target named is T2, human CYP 2C19 (Homo sapiens, UniProt P33261).
T2 construct: Mixture of 180 μL of 20 mg/mL HLM and 90 μL of substrate cocktail solution; from tissue; host or cells: human liver microsomes (HLM)
Kind of data set: CYP inhibition assay, CYP 2C19. The data set is classed as in vitro ADME. As to the method:
as §1, §2

In another data set the target is human CYP 2C9 (Homo sapiens, UniProt P11712). The data set can be described thus: Time dependent CYP inhibition assay, CYP 2C9. The data set is classed as in vitro ADME.
Data set [6] addresses T2, human CYP 2C19. Kind of data set: Time dependent CYP inhibition assay, CYP 2C19. Type of data set: in vitro ADME.
[7] abbreviates: 3 mg/kg oral once daily for four days.
Where [8] appears, read: 10 mg/kg oral once daily for four days.
Where [9] appears, read: 30 mg/kg oral once daily for four days.
The mark [10] stands for this setting: human liver microsomes, substrate cocktail, read-out: IC50 CYP 2D6.
Where [11] appears, read: human liver microsomes, substrate cocktail, read-out: IC50 CYP 2C19.

T1 sequence (P10635 whole entry): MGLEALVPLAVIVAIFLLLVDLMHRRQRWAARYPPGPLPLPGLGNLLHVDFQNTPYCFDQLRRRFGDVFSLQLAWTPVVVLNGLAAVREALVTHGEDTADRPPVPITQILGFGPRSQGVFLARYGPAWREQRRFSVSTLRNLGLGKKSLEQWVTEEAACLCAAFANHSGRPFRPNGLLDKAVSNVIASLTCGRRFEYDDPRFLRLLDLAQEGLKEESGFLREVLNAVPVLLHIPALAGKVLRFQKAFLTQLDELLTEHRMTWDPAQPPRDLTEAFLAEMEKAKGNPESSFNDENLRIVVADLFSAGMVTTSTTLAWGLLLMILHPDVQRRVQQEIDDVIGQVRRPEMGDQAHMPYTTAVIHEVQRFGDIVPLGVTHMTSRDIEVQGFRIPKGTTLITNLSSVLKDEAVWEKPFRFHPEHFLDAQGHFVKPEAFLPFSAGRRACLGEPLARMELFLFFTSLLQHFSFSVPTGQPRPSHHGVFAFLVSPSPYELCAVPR
T2 sequence (P33261 whole entry): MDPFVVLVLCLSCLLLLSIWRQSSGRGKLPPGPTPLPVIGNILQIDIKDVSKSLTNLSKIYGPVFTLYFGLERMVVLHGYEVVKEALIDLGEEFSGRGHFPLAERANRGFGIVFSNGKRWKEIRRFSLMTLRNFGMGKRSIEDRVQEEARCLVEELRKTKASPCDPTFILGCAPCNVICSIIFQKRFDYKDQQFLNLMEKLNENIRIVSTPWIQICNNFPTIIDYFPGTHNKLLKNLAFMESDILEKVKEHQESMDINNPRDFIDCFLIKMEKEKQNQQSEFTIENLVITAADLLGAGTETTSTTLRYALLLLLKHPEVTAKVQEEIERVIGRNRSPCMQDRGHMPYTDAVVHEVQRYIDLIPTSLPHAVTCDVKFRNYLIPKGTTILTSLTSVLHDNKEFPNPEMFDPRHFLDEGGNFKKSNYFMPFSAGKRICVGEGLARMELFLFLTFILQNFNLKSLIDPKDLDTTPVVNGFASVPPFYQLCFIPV
Chain of human CYP 2C9 (P11712 whole entry): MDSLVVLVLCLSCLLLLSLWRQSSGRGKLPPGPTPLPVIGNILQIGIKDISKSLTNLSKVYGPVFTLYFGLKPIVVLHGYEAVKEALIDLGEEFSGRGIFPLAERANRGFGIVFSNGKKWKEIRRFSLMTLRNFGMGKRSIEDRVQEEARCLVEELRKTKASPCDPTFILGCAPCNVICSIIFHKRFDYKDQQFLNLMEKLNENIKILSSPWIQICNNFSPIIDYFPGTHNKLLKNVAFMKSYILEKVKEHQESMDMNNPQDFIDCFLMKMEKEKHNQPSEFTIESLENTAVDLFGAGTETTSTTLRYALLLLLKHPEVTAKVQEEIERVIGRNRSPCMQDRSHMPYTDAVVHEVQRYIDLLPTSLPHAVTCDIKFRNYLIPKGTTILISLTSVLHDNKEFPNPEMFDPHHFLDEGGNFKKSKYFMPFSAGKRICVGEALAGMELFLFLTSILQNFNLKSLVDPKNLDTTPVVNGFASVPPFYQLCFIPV
Chain of CYP3A4 (P08684 2-503): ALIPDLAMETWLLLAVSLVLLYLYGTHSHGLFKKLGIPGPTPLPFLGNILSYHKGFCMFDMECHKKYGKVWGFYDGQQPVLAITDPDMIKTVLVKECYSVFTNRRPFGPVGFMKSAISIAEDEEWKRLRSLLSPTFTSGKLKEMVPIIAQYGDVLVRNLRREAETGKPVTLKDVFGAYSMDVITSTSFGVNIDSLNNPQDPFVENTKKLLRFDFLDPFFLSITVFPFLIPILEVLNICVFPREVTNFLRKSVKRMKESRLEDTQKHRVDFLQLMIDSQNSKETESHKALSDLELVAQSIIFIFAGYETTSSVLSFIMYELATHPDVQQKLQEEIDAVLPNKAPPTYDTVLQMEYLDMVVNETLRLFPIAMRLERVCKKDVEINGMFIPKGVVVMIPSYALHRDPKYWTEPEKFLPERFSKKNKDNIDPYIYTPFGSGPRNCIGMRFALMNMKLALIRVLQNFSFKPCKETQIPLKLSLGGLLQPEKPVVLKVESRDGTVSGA

For `CCc1cc(Nc2ncc(N3CCN[C@H](C)C3)c(Nc3cc(C)n(C)n3)n2)nc(C)c1F` [Example 7, (R)—N4-(1,5-dimethyl-1H-pyrazol-3-yl)-N2-(4-ethyl-5-fluoro-6-methylpyridin-2-yl)-5-(3-methylpiperazin-1-yl)pyrimidine-2,4-diamine dihydrochloride], the results for the “% Inhibition” value in the data set on Plasmodium berghei (setting [7]), in the data set with Plasmodium berghei (setting [8]) and in the data set on Plasmodium berghei (setting [9]) were 6%, 28% and 100%, respectively. In addition, in the data set on hepatocytes, the “Hep. Clint” value is recorded as 2.7 μl/min/1E6. Besides, the figures for the BP ratio in data set [1] and in data set [2] were 2.2 and 1.3, respectively. In data set [3], this compound had a Fup of 0.03. Further, in data set [4], the “Oral ‘F’” value stood at 31%. Also, the “½ life (PO PK)” value in data set [4] is listed as 10 h. For the same compound, in data set [4] (in vivo), the clearance came to 26.6 mL/min/kg. Moreover, the Vd in data set [4] (in vivo) amounted to 12 L/kg. This compound also returned an IC50 at 5 min against CYP3A4 above 30 µM. Besides, the IC50 on human CYP 2D6 was above 30 µM; against human CYP 2C19 [5] it was above 30 µM; on human CYP 2C9, above 56 µM; against human CYP 2C19 [6], above 56 µM.

With `Cc1nc(Nc2ncc(N3CCN[C@H](C)C3)c(Nc3cnn(C)n3)n2)cc(C2CC2)c1Cl` [Example 10, (R)—N2-(5-chloro-4-cyclopropyl-6-methylpyridin-2-yl)-N4-(2-methyl-2H-1,2,3-triazol-4-yl)-5-(3-methylpiperazin-1-yl)pyrimidine-2,4-diamine dihydochloride], the results for the “% Inhibition” value with Plasmodium berghei (setting [8]), with Plasmodium berghei (15 mg/kg oral once daily for four days) and with Plasmodium berghei (setting [9]) were 60%, 75% and 100%, respectively. The “Hep. Clint” value with hepatocytes came out at 1.8 μl/min/1E6. Moreover, the BP ratio in data set [1] was 1.7; in data set [2], 1.8. For the same compound, the Fup in data set [3] is 0.04. Also, in data set [4], the “Oral ‘F’” value is reported as 17%. For the same compound, the “½ life (PO PK)” value in [4] is listed as 30 h. Moreover, the clearance in data set [4] (blood) is 22.5 mL/min/kg. Besides, the Vd in data set [4] (blood) was determined as 9.7 L/kg. This compound registered an IC50 at 5 min at CYP3A4 above 30 µM. In addition, the IC50 on human CYP 2D6 (setting [10]) was above 30 µM; on human CYP 2C19 [5] (setting [11]), above 30 µM; at human CYP 2C9, above 56 µM; on human CYP 2C19 [6], above 56 µM.

In the case of `Cc1nc(Nc2ncc(N3CCN(C)[C@H](C)C3)c(Nc3cc(C)n(C)n3)n2)cc(C2CC2)c1F` [Example 13, (R)—N2-(4-cyclopropyl-5-fluoro-6-methylpyridin-2-yl)-N4-(1,5-dimethyl-1H-pyrazol-3-yl)-5-(3,4-dimethylpiperazin-1-yl)pyrimidine-2,4-diamine], the figures for the “% Inhibition” value in the data set on Plasmodium berghei (setting [7]), in the data set on Plasmodium berghei (setting [8]) and in the data set on Plasmodium berghei (setting [9]) were 0%, 42% and 100%, respectively. Moreover, in the data set on hepatocytes, the “Hep. Clint” value came out at 3.1 μl/min/1E6. The BP ratio was 1.06 in data set [1] and 1.1 in [2]. The Fup in data set [3] was determined as 0.03. Moreover, in data set [4], the “Oral ‘F’” value was found to be 80%. In addition, the “½ life (PO PK)” value in data set [4] turned out to be 10 h. Besides, the clearance in [4] (blood) is 9.8 mL/min/kg. The Vd in [4] (blood) was 7.9 L/kg. Moreover, at CYP3A4, the concentration for half-maximal inhibition (IC50) at 5 min is above 30 µM. Besides, the IC50 at human CYP 2D6 (setting [10]) is above 30 µM; at human CYP 2C19 [5] (setting [11]), above 30 µM; against human CYP 2C9, above 56 µM; against human CYP 2C19 [6] it was above 56 µM.
